Results as given in patent US8026219B2, “Antimicrobial linear peptides” (Universitat de Girona, priority 2006, dated 2011).
Residues, ends and D or L forms follow the SMILES beside them. No end group written: not given here. *: point of attachment. Tos = Cc1ccc(S(=O)(=O)*)cc1

Key:
[1] = tested on: Xanthomonas vesicatori 2133-2; assay: Minimum inhibitory concentration (MIC), microbial growth by optical density; conditions: 48 h incubation at 25° C., TSB medium
Experimental: All the bacteria were stored at a temperature of −80° C. in Luria-Bertani (LB) medium supplemented with 20% glycerine in volume/volume.
In all cases they were resuspended in sterile water to obtain a suspension adjusted to an absorbance of 0.2 to 60 nm, which approximately corresponds to 10^8 colony forming units.
To determine the minimum inhibitory concentration (MIC), the peptides were solubilized in milli-Q sterile water until a final concentration of 1000 μM and they were filtered through a 0.22 μm pore size filter.
Dilutions of the peptides of the invention were made to obtained solutions at the concentrations of 750, 500, 250, 200, 150, 125, 100, 75, 50 and 25 μM.
20 μl of each dilution were mixed with 20 μl of the suspension of the corresponding bacterial indicator, and 160 μl of the TSB (Trypticase Soy Broth) liquid medium until a total volume of 200 μl in each well of a microplate.
Two replicas were carried out for each strain, concentration and peptide under study.
The positive controls contained water instead of peptide, and the negative controls contained the peptides without the bacterial suspension.
The microbial growth was determined automatically by optical density at 600 nm using the Microbiology Analyser Bioscreen C (Labsystems)
The microplates were incubated at 25° C. for 48 hours with stirring for 20 seconds before measuring the absorbance every hour. Each experiment was performed twice.

Proteinase K = Proteinase K (Parengyodontium album, UniProt P06873); assay: in vitro; conditions: Proteinase K (1 μg/ml), pH 7.6
Experimental: The degradation is expressed as the percentage of peptide degraded after a determined time interval calculated from the decrease in the area of the peak of the native peptide by HPLC.
The stability of the peptides of the invention to degradation by proteases is determined by a peptide digestion test by Proteinase K (Sigma-Aldrich Corporation, Madrid, Spain).
A solution of 50 μg/ml of the peptide and 1 μg/ml of Proteinase K in 100 mM TRIS buffer at pH 7.6 was used, at ambient temperature.
The progress of the peptide excision was determined chromatographically at times between 5 and 45 minutes. To do this a reverse phase C18 column was used (Kromasil, 4.6×40 mm; 3.5 μm particle size), and linear gradients from 0.98:0.02 to 0:1 during 7 min performing the detection by absorbance in ultraviolet light at 220 nm.

[2] = tested on: erythrocytes from fresh human blood; conditions: 5% erythrocytes, 1 h at 37° C., relative to 200 μM melittin; for % Haemolysis 50 μM: 50 μM peptide; for % Haemolysis 150 μM: 150 μM peptide; for % Haemolysis 250 μM: 250 μM peptide
Experimental: A description of the methodology used to determine the haemolytic activity is found in Oren et al, Biochemistry, 2000, 39, 6103-6114, and in Raguse et al., J. Am. Chem. Soc., 2002, 124, 12774-12785.
The haemolytic activity of the peptides of the invention was evaluated by determining the release of haemoglobin which is produced on placing in contact a solution of the peptides with a suspension of erythrocytes 5% by volume, from fresh human blood.
The blood was collected aseptically using a Vactainer® K2E system (Belliver, Great Britain) with EDTA and it was stored at 4° C. for a period lower than 2 hours.
The blood was centrifuged at 6000 g for 5 minutes to separate the erythrocytes. There were washed three times with TRIS buffer (10 mM TRIS, 150 mM NaCl, pH 7.2) and they were resuspended in TRIS buffer until obtaining a suspension which contained 10% by volume of erythrocytes.
The peptides were solubilized in TRIS buffer until a final concentration of 100, 300 and 500 μM
The replicas were used for each peptide and concentration.
65 μl of 10% erythrocyte suspension was mixed with 65 μl of the peptide solution in each well of a 96-well plate (Micro-Amp®, Applied Biosystems, USA) (5% by volume of erythrocytes) and the mixture was incubated for 1 h at 37° C. under stirring. In this way, the erythrocyte suspensions were subjected to peptide concentrations of 50, 150 and 250 μM.
Next, the plates were centrifuged at 3500 g during 10 minutes and aliquots were transferred of 80 μl of supernatant to microplates with 100 wells (Bioscreen), which were diluted with 80 μl of milli-Q water.
The degree of haemolysis was determined from the absorbance at 540 nm with a Bioscreen plate reader.
The complete positive haemolysis control was determined in a TRIS buffer solution which contained 200 μM melittin (Sigma-Aldrich, Spain)
The percentage of haemolysis (H) was determined using the following equation: H=100×[Op−Ob)/(Om−Ob)]
Where OP as the optical density measured for a determined peptide concentration, Ob was the optical density of the buffer solution, and Om was the optical density for the positive control with melittin.

[3] = tested on: Erwinia amylovora PMV6076; assay: Minimum inhibitory concentration (MIC), microbial growth by optical density; type: cell-based; conditions: 48 h incubation at 25° C., TSB medium
Experimental: (§1) Each experiment was performed twice.

[4] = tested on: Pseudomonas syringae EPS94; assay: as above; type: cell-based; conditions: 48 h incubation at 25° C., TSB medium
Experimental: as §1

[5] = listed as peptide described by Cavallarin et al

Chain of Proteinase K (P06873 106-384): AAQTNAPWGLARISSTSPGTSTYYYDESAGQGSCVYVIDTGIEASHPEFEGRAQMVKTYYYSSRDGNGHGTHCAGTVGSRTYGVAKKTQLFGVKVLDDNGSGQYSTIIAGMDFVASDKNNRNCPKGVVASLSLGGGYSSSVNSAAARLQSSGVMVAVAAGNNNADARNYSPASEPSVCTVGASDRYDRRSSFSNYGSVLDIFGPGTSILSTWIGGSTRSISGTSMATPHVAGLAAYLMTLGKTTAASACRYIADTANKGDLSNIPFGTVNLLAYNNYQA

| Molecule | range of concentrations including the MIC, X. vesicatoria [1] [µM] | metabolised at 0.75 h, 50 μg/ml (Proteinase K) [%] | % Haemolysis 50 μM [2] [%] | % Haemolysis 150 μM [2] [%] | % Haemolysis 250 μM [2] [%] | range of concentrations including the MIC, X. vesicatoria [1, 5] | range of concentrations including the MIC, E. amylovora [3, 5] | range of concentrations including the MIC, P. syringae [4, 5] | range of concentrations including the MIC, E. amylovora [3] [µM] | range of concentrations including the MIC, P. syringae [4] [µM] |
| --- | --- | --- | --- | --- | --- | --- | --- | --- | --- | --- |
| CC[C@H](C)[C@H](NC(=O)[C@H](CCCCN)NC(=O)[C@H](CCCCN)NC(=O)[C@H](Cc1ccccc1)NC(=O)[C@H](CC(C)C)NC(=O)[C@H](CCCCN)NC(=O)[C@@H](N)CCCCN)C(=O)N[C@@H](CC(C)C)C(=O)N[C@@H](CCCCN)C(=O)N[C@@H](Cc1ccc(O)cc1)C(=O)N[C@@H](CC(C)C)C(N)=O [BP100] | 5 to 7.5 | 60 | 3 | 22 | 43 |  |  |  |  |  |
| WKLFKKILKVL-NH2 [Comparative example, reference compound] |  | 100 |  |  |  | over 7.5 μM | over 7.5 μM | over 7.5 μM |  |  |
| CC[C@H](C)[C@H](NC(=O)[C@H](CCCCN)NC(=O)[C@H](CCCCN)NC(=O)[C@H](Cc1ccccc1)NC(=O)[C@H](CC(C)C)NC(=O)[C@H](CCCCN)NC(=O)[C@H](CCCCN)NC(=O)c1ccccc1)C(=O)N[C@@H](CC(C)C)C(=O)N[C@@H](CCCCN)C(=O)N[C@H](C(=O)N[C@@H](CC(C)C)C(N)=O)C(C)C [BP031] | <2.5 |  | 34 | 71 | 76 |  |  |  | 2.5 to 5 | 5 to 7.5 |
| CC[C@H](C)[C@H](NC(=O)[C@H](CCCCN)NC(=O)[C@H](CCCCN)NC(=O)[C@H](Cc1ccccc1)NC(=O)[C@H](CC(C)C)NC(=O)[C@H](CCCCN)NC(=O)[C@H](CCCCN)NC(=O)c1ccccc1)C(=O)N[C@@H](CC(C)C)C(=O)N[C@@H](CCCCN)C(=O)N[C@@H](Cc1ccc(O)cc1)C(=O)N[C@@H](CC(C)C)C(N)=O [BP103] | <2.5 |  | 42 | 83 | 80 |  |  |  | 7.5 | 5 to 7.5 |
| WKLFKKILKWL-NH2 [BP018] | 2.5 |  | 78 | 68 | 74 |  |  |  | 5 to 7.5 | 5 to 7.5 |
| FKLFKKILKFL-NH2 [BP066] | 2.5 to 5 |  | 9 | 63 | 89 |  |  |  | 2.5 to 5 | 5 to 7.5 |
| Ac-WKLFKKILKVL-NH2 [BP008] |  | 100 |  |  |  |  |  |  |  |  |
| CC[C@H](C)[C@H](NC(=O)[C@H](CCCCN)NC(=O)[C@H](CCCCN)NC(=O)[C@H](Cc1ccccc1)NC(=O)[C@H](CC(C)C)NC(=O)[C@H](CCCCN)NC(=O)[C@@H](N)CCCCN)C(=O)N[C@@H](CC(C)C)C(=O)N[C@@H](CCCCN)C(=O)N[C@@H](Cc1c[nH]c2ccccc12)C(=O)N[C@@H](CC(C)C)C(N)=O [BP052] | 2.5 to 5 |  | 51 | 84 | 79 |  |  |  | 2.5 to 5 | 5 |
| CC[C@H](C)[C@H](NC(=O)[C@H](CCCCN)NC(=O)[C@H](CCCCN)NC(=O)[C@H](Cc1ccccc1)NC(=O)[C@H](CC(C)C)NC(=O)[C@H](CCCCN)NC(=O)[C@H](Cc1ccc(O)cc1)NS(=O)(=O)c1ccc(C)cc1)C(=O)N[C@@H](CC(C)C)C(=O)N[C@@H](CCCCN)C(=O)N[C@@H](Cc1ccc(O)cc1)C(=O)N[C@@H](CC(C)C)C(N)=O [BP097] | <2.5 |  | 83 | 81 | 88 |  |  |  | >7.5 | >7.5 |
| YKLFKKILKWL-NH2 [BP047] | 2.5 to 5 |  | 81 | 76 | 82 |  |  |  | 5 to 7.5 | 5 to 7.5 |
| CC[C@H](C)[C@H](NC(=O)[C@H](CCCCN)NC(=O)[C@H](CCCCN)NC(=O)[C@H](Cc1ccccc1)NC(=O)[C@H](CC(C)C)NC(=O)[C@H](CCCCN)NC(=O)[C@H](CCCCN)NC(C)=O)C(=O)N[C@@H](CC(C)C)C(=O)N[C@@H](CCCCN)C(=O)N[C@@H](Cc1c[nH]c2ccccc12)C(=O)N[C@@H](CC(C)C)C(N)=O [BP053] | 2.5 to 5 |  | 60 | 82 | 85 |  |  |  | >7.5 | 5 to 7.5 |
| CC[C@H](C)[C@H](NC(=O)[C@H](CCCCN)NC(=O)[C@H](CCCCN)NC(=O)[C@H](Cc1ccccc1)NC(=O)[C@H](CC(C)C)NC(=O)[C@H](CCCCN)NC(=O)[C@H](Cc1c[nH]c2ccccc12)NS(=O)(=O)c1ccc(C)cc1)C(=O)N[C@@H](CC(C)C)C(=O)N[C@@H](CCCCN)C(=O)N[C@H](C(=O)N[C@@H](CC(C)C)C(N)=O)C(C)C [BP009] (Tos-WKLFKKILKVL-NH2) |  | 100 |  |  |  |  |  |  |  |  |
| CC[C@H](C)[C@H](NC(=O)[C@H](CCCCN)NC(=O)[C@H](CCCCN)NC(=O)[C@H](Cc1ccccc1)NC(=O)[C@H](CC(C)C)NC(=O)[C@H](CCCCN)NC(=O)[C@@H](N)CC(C)C)C(=O)N[C@@H](CC(C)C)C(=O)N[C@@H](CCCCN)C(=O)N[C@@H](Cc1ccc(O)cc1)C(=O)N[C@@H](CC(C)C)C(N)=O [BP105] | 2.5 to 5 |  | 14 | 91 | 90 |  |  |  | 5 | 5 to 7.5 |
| CC[C@H](C)[C@H](NC(=O)[C@H](CCCCN)NC(=O)[C@H](CCCCN)NC(=O)[C@H](Cc1ccccc1)NC(=O)[C@H](CC(C)C)NC(=O)[C@H](CCCCN)NC(=O)[C@@H](N)Cc1ccccc1)C(=O)N[C@@H](CC(C)C)C(=O)N[C@@H](CCCCN)C(=O)N[C@@H](Cc1ccc(O)cc1)C(=O)N[C@@H](CC(C)C)C(N)=O [BP090] | 2.5 to 5 |  | 11 | 57 | 84 |  |  |  | 5 to 7.5 | 5 to 7.5 |
| CC[C@H](C)[C@H](NC(=O)[C@H](CCCCN)NC(=O)[C@H](CCCCN)NC(=O)[C@H](Cc1ccccc1)NC(=O)[C@H](CC(C)C)NC(=O)[C@H](CCCCN)NC(=O)[C@H](Cc1ccc(O)cc1)NS(=O)(=O)c1ccc(C)cc1)C(=O)N[C@@H](CC(C)C)C(=O)N[C@@H](CCCCN)C(=O)N[C@@H](CCCCN)C(=O)N[C@@H](CC(C)C)C(N)=O [BP121] (Tos-YKLFKKILKKL-NH2) | 2.5 to 5 |  | 22 | 81 | 86 |  |  |  | >7.5 | 2.5 to 5 |
| CC[C@H](C)[C@H](NC(=O)[C@H](CCCCN)NC(=O)[C@H](CCCCN)NC(=O)[C@H](Cc1ccccc1)NC(=O)[C@H](CC(C)C)NC(=O)[C@H](CCCCN)NC(=O)[C@@H](N)Cc1ccc(O)cc1)C(=O)N[C@@H](CC(C)C)C(=O)N[C@@H](CCCCN)C(=O)N[C@@H](Cc1ccc(O)cc1)C(=O)N[C@@H](CC(C)C)C(N)=O [BP095] | 2.5 to 5 |  | 7 | 50 | 76 |  |  |  | 5 to 7.5 | 5 to 7.5 |
